Results on one molecule are retold here after article PMC9348805, “Identification of the NRF2 transcriptional network as a therapeutic target for trigeminal neuropathic pain” (Science Advances, 2022).

This experiment concerns the target T1, TRPA1 (Homo sapiens, UniProt O75762).
T1 construct: full-length myc-tagged TRPA1 cDNA (gift of M. Caterina), transiently expressed in HEK-293 cells; Fura-2 calcium imaging
Kind of experiment: calcium imaging (Fura-2) of HEK-293 cells transiently expressing TRPA1, with vector and mutant controls. The experiment is classed as cell-based.

T1 sequence (O75762 whole entry): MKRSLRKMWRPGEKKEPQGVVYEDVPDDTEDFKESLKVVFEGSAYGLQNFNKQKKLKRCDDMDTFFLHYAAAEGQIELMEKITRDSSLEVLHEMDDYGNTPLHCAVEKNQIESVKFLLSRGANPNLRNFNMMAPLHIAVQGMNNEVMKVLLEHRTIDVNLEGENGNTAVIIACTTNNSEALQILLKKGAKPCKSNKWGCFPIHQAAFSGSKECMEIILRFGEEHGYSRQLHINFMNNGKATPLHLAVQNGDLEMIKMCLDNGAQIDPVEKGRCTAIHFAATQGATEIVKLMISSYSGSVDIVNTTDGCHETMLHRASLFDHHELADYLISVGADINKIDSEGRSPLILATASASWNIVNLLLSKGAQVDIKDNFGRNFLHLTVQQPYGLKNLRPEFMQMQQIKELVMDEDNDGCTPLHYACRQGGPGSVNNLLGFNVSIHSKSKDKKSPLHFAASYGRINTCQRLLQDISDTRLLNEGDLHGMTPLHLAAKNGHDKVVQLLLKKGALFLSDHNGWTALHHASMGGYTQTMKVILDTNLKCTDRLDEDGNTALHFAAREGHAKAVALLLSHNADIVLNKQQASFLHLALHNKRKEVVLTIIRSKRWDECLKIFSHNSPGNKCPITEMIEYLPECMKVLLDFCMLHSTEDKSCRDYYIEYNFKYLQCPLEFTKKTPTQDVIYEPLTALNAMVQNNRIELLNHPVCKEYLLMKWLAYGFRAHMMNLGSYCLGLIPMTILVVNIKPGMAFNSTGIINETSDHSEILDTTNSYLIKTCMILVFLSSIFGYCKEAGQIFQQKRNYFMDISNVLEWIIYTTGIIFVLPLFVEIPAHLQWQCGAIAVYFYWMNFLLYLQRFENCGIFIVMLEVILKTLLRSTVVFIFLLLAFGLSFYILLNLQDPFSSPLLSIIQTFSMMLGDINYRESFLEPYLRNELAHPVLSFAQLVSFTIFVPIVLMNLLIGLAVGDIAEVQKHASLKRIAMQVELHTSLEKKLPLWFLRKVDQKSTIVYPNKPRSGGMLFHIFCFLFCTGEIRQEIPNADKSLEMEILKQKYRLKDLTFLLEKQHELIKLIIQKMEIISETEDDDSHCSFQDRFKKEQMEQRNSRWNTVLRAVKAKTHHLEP

By EC50 is commonly meant the concentration needed to bring the measured effect to its halfway point. On to `CCCCCC(O)C=CC=O` (stereo not shown) [4-HNE], for which the EC50 came out at 48 µM.
